# Laboratory results: ChEMBL document CHEMBL4715874, “In Vivo Screening of Xanthones from Garcinia oligantha Identified Oliganthin H as a Novel Natural Inhibitor of Convulsions” (J Nat Prod, 2020)
# Experiments:
# [1] = Effect of ABAT mRNA expression in AB zebra fish larvae at 25 uM after 6 hrs by qRT-PCR analysis (reference value: 1 +/- 0.11%); assay type: ADME, Danio rerio; settings: zebrafish
# [2] = Toxicity in AB zebra fish larvae assessed as maximum tolerated concentration after 6 hrs; parameters: species or system Danio rerio; settings: zebrafish, read-out: MTC
# Danio rerio [3] = organism: Danio rerio; test: Anticonvulsant activity in AB zebra fish larvae assessed as PTZ-induced calb2 mRNA expression at 25 uM pretreated for 6 hrs followed by PTZ-stimulation and measured after 30 mins by qRT-PCR analysis (reference value: 0.88 +/- 0.39%); assay type: functional; settings: time 6.5 hrs
# Danio rerio [4] = organism: Danio rerio; test: Anticonvulsant activity in AB zebra fish larvae assessed as PTZ-induced velocity at 6.2 uM pretreated for 6 hrs followed by PTZ-stimulation and measured every 5 mins for 30 mins (reference value: 0.63 +/- 0.23 mm/s); assay type: functional; settings: time 6.5 hrs
# [5] = Effect of npas4a mRNA expression in AB zebra fish larvae at 25 uM after 6 hrs by qRT-PCR analysis (reference value: 1.04 +/- 0.41%); assay type: ADME, Danio rerio; settings: zebrafish
# [6] = Effect of calb2 mRNA expression in AB zebra fish larvae at 25 uM after 6 hrs by qRT-PCR analysis (reference value: 1.02 +/- 0.33%); assay type: ADME, Danio rerio; settings: zebrafish
# Danio rerio [7] = organism: Danio rerio; test: Anticonvulsant activity in AB zebra fish larvae assessed as PTZ-induced seizure duration time at 12.5 uM pretreated for 6 hrs followed by PTZ-stimulation and measured every 5 mins for 30 mins (reference value: 0.32 +/- 0.31 s); assay type: functional; settings: time 6.5 hrs
# [8] = Effect of BDNF mRNA expression in AB zebra fish larvae at 25 uM after 6 hrs by qRT-PCR analysis (reference value: 1.01 +/- 0.21%); assay type: ADME, Danio rerio; settings: zebrafish
# Danio rerio [9] = organism: Danio rerio; test: Anticonvulsant activity in AB zebra fish larvae assessed as PTZ-induced number of burst at 12.5 uM pretreated for 6 hrs followed by PTZ-stimulation and measured every 5 mins for 30 mins (reference value: 9.25 +/- 6.36); assay type: functional; settings: time 6.5 hrs
# [10] = Ratio of MTC for toxicity in AB zebra fish larvae to lowest observed effect concentration for Anticonvulsant activity in AB zebra fish larvae assessed as reduction in PTZ-induced convulsant behavior; parameters: species or system Danio rerio
# [11] = Toxicity in AB zebra fish larvae assessed as mortality at 100 uM after 6 hrs; parameters: species or system Danio rerio; settings: zebrafish
# Danio rerio [12] = organism: Danio rerio; test: Anticonvulsant activity in AB zebra fish larvae assessed as PTZ-induced ABAT mRNA expression at 25 uM pretreated for 6 hrs followed by PTZ-stimulation and measured after 30 mins by qRT-PCR analysis (reference value: 2.16 +/- 1.2%); assay type: functional; settings: time 6.5 hrs
# Danio rerio [13] = organism: Danio rerio; test: Anticonvulsant activity in AB zebra fish larvae assessed as reduction in PTZ-induced convulsant behavior by measuring swimming distance at 25 uM pretreated for 6 hrs followed by PTZ-stimulation and measured every 5 mins for 1 hr relative to control; assay type: functional; parameters: scale not given: the % may be the effect or the level left; settings: time 7 hrs
# Danio rerio [14] = organism: Danio rerio; test: Anticonvulsant activity in AB zebra fish larvae assessed as PTZ-induced seizure duration time at 25 uM pretreated for 6 hrs followed by PTZ-stimulation and measured every 5 mins for 30 mins (reference value: 0.32 +/- 0.31 s); assay type: functional; settings: time 6.5 hrs
# Danio rerio [15] = organism: Danio rerio; test: Anticonvulsant activity in AB zebra fish larvae assessed as PTZ-induced gat1 mRNA expression at 25 uM pretreated for 6 hrs followed by PTZ-stimulation and measured after 30 mins by qRT-PCR analysis (reference value: 1.63 +/- 0.28%); assay type: functional; settings: time 6.5 hrs
# [16] = Effect of gad1 mRNA expression in AB zebra fish larvae at 25 uM after 6 hrs by qRT-PCR analysis (reference value: 1 +/- 0.11%); assay type: ADME, Danio rerio; settings: zebrafish
# Danio rerio [17] = organism: Danio rerio; test: Anticonvulsant activity in AB zebra fish larvae assessed as PTZ-induced seizure duration time at 6.2 uM pretreated for 6 hrs followed by PTZ-stimulation and measured every 5 mins for 30 mins (reference value: 0.32 +/- 0.31 s); assay type: functional; settings: time 6.5 hrs
# [18] = Neurotoxicity in AB zebra fish larvae at 100 uM after 6 hrs; assay type: toxicity, Danio rerio; settings: zebrafish
# Danio rerio [19] = organism: Danio rerio; test: Anticonvulsant activity in AB zebra fish larvae assessed as PTZ-induced gabra1 mRNA expression at 25 uM pretreated for 6 hrs followed by PTZ-stimulation and measured after 30 mins by qRT-PCR analysis (reference value: 19.68 +/- 3.28%); assay type: functional; settings: time 6.5 hrs
# [20] = Neurotoxicity in AB zebra fish larvae assessed as decrease in total swimming distance at <= MTC after 6 hrs; assay type: toxicity, Danio rerio; settings: zebrafish
# Danio rerio [21] = organism: Danio rerio; test: Anticonvulsant activity in AB zebra fish larvae assessed as reduction in PTZ-induced convulsant behavior by measuring swimming distance at 12.5 uM pretreated for 6 hrs followed by PTZ-stimulation and measured every 5 mins for 1 hr relative to control; assay type: functional; parameters: scale not given: the % may be the effect or the level left; settings: time 7 hrs
# [22] = Effect of glud1a mRNA expression in AB zebra fish larvae at 25 uM after 6 hrs by qRT-PCR analysis (reference value: 1 +/- 0.16%); assay type: ADME, Danio rerio; settings: zebrafish
# Danio rerio [23] = organism: Danio rerio; test: Anticonvulsant activity in AB zebra fish larvae assessed as PTZ-induced npas4a mRNA expression at 25 uM pretreated for 6 hrs followed by PTZ-stimulation and measured after 30 mins by qRT-PCR analysis (reference value: 25.34 +/- 3.28%); assay type: functional; settings: time 6.5 hrs
# Danio rerio [24] = organism: Danio rerio; test: Anticonvulsant activity in AB zebra fish larvae assessed as PTZ-induced seizure activity at 12.5 uM pretreated for 6 hrs followed by PTZ-stimulation and measured every 5 mins for 30 mins (reference value: 14.13 +/- 0.004 mm); assay type: functional; settings: time 6.5 hrs
# Danio rerio [25] = organism: Danio rerio; test: Anticonvulsant activity in AB zebra fish larvae assessed as PTZ-induced pvalb5 mRNA expression at 25 uM pretreated for 6 hrs followed by PTZ-stimulation and measured after 30 mins by qRT-PCR analysis (reference value: 0.59 +/- 0.52%); assay type: functional; settings: time 6.5 hrs
compound,measurement,setting,value
CC(C)=CCC/C(C)=C/C[C@@]1(CC=C(C)C)C(=O)C(O)=C(O)c2oc3c4c(cc(O)c3c(=O)c21)OC(C)(C)C=C4,Activity,[1],0.7%
same,MNTC at 6 h,[2],50 µM
same,Activity,Danio rerio [3],0.97%
same,Activity,Danio rerio [4],1.2 millimeter/sec
same,Activity,[5],1.95%
same,Activity,[6],0.86%
same,Time,Danio rerio [7],8.18 s
same,Activity,[8],1.14%
same,Activity,Danio rerio [9],153.5
same,Ratio,[10],4
same,Activity,[11],Toxic
same,Activity,Danio rerio [12],0.53%
same,Activity,Danio rerio [13],50%
same,Time,Danio rerio [14],7.32 s
same,Activity,Danio rerio [15],1.13%
same,Activity,[16],1.31%
same,Time,Danio rerio [17],18.46 s
same,Activity,[18],Toxic
same,Activity,Danio rerio [19],1.34%
same,Activity,[20],Non-Toxic
same,Activity,Danio rerio [21],25%
same,Activity,[22],1%
same,Activity,Danio rerio [23],0.89%
same,Activity,Danio rerio [24],600.8 mm
same,Activity,Danio rerio [25],0.85%
